Assay results as given in ChEMBL document CHEMBL1201862, “PubChem BioAssay data set” (2004).
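Compound exposure: 48 hours, 5 concentrations, 96-well plates. GI50 marks 50% less growth.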 Activity calls are given as the source filed them. Cut-off read from the data, not from the text of the source: active = GI50 up to about 1.1 µM and inactive = higher.

Experiments:
Experiment in all cases: inhibition of tumour cell growth, NCI panel, 48 h
786-0 = system: 786-0
A498 = system: A498
COLO 205 = system: COLO 205
HT-29 = system: HT-29
KM12 = system: KM12
NCI-H226 = system: NCI-H226
NCI-H23 = system: NCI-H23
OVCAR-3 = system: OVCAR-3
OVCAR-5 = system: OVCAR-5
OVCAR-8 = system: OVCAR-8
RPMI-8226 = system: RPMI-8226
RXF 393 = system: RXF 393
SF-295 = system: SF-295
SK-MEL-28 = system: SK-MEL-28
SK-MEL-5 = system: SK-MEL-5
SNB-75 = system: SNB-75
UACC-257 = system: UACC-257
UO-31 = system: UO-31
OVCAR-4 = system: OVCAR-4

Measured: GI50

NC(=O)C(=O)N/N=C1\C(=O)N(c2ccc(Cl)cc2Cl)C(=O)C1C(=O)Nc1ccc(Cl)cc1Cl (configuration not stated)
inactive: 786-0 > 100 µM | A498 > 100 µM | COLO 205 > 100 µM | HT-29 > 100 µM | KM12 > 100 µM | NCI-H226 > 100 µM | NCI-H23 > 100 µM | OVCAR-3 > 100 µM | OVCAR-5 > 100 µM | OVCAR-8 > 100 µM | RPMI-8226 > 100 µM | RXF 393 > 100 µM | SF-295 > 100 µM | SK-MEL-28 > 100 µM | SK-MEL-5 > 100 µM | SNB-75 28.8 µM | UACC-257 > 100 µM | UO-31 > 100 µM

N#CC(c1ccc(Cl)cc1)c1cccc(Cl)n1 (configuration not stated)
inactive: 786-0 82.2 µM | A498 74.8 µM | COLO 205 67.1 µM | HT-29 83.6 µM | KM12 78.3 µM | NCI-H226 43.6 µM | NCI-H23 43.3 µM | OVCAR-3 34 µM | OVCAR-4 40 µM | OVCAR-5 > 100 µM | OVCAR-8 > 100 µM | RPMI-8226 51.1 µM | SF-295 61.9 µM | SK-MEL-28 86.9 µM | SNB-75 21.5 µM | UACC-257 60.7 µM | UO-31 28.1 µM

CCOC(=O)[C-]([N+]#N)[Si](C)(C)C
inactive: 786-0 > 100 µM | A498 > 100 µM | COLO 205 > 100 µM | HT-29 > 100 µM | KM12 > 100 µM | NCI-H23 75.5 µM | OVCAR-3 > 100 µM | OVCAR-4 > 100 µM | OVCAR-5 > 100 µM | OVCAR-8 > 100 µM | RXF 393 > 100 µM | SF-295 > 100 µM | SK-MEL-28 18.5 µM | SK-MEL-5 > 100 µM | SNB-75 > 100 µM | UACC-257 59.3 µM

N#CC1(C=O)c2ccccc2C=CN1C(=O)c1ccccc1 (configuration not stated)
inactive: 786-0 31.7 µM | A498 26.4 µM | COLO 205 37.3 µM | HT-29 38.2 µM | KM12 19.2 µM | NCI-H226 61.9 µM | NCI-H23 41.7 µM | OVCAR-3 16.7 µM | OVCAR-4 34.9 µM | OVCAR-8 41.8 µM | RXF 393 20.5 µM | SK-MEL-28 > 100 µM | SK-MEL-5 11.4 µM | SNB-75 15.1 µM | UACC-257 29.8 µM | UO-31 33.3 µM

C=C(C)C1CC=C(C(=O)O)CC1 (configuration not stated)
inactive: 786-0 1410 µM | A498 1210 µM | COLO 205 592 µM | HT-29 1450 µM | KM12 859 µM | NCI-H226 1040 µM | NCI-H23 968 µM | OVCAR-3 877 µM | OVCAR-4 1760 µM | OVCAR-5 1660 µM | OVCAR-8 1200 µM | RXF 393 942 µM | SF-295 1090 µM | SK-MEL-28 1010 µM | SK-MEL-5 752 µM | SNB-75 1200 µM | UACC-257 1190 µM | UO-31 1190 µM

CC(=O)Nc1c(Nc2ccccc2)[nH]c(C)nc1=S
inactive: 786-0 > 100 µM | COLO 205 > 100 µM | KM12 > 100 µM | NCI-H23 > 100 µM | OVCAR-3 > 100 µM | OVCAR-4 > 100 µM | OVCAR-5 > 100 µM | OVCAR-8 > 100 µM | RPMI-8226 > 100 µM | RXF 393 > 100 µM | SF-295 > 100 µM | SK-MEL-28 > 100 µM | SK-MEL-5 > 100 µM | SNB-75 92.9 µM | UACC-257 > 100 µM | UO-31 > 100 µM

NC(=S)N/N=C/c1cn(CCCl)c2ccccc12
inactive: 786-0 43.7 µM | COLO 205 46.5 µM | HT-29 23.9 µM | KM12 32.7 µM | NCI-H23 > 100 µM | OVCAR-3 36.8 µM | OVCAR-5 3.81 µM | OVCAR-8 57.3 µM | RPMI-8226 14.2 µM | RXF 393 > 100 µM | SF-295 13.6 µM | SK-MEL-28 63.5 µM | SK-MEL-5 15.9 µM | SNB-75 12.9 µM | UACC-257 22 µM | UO-31 16.9 µM

CC12CP(=O)(c3ccccc3)CC1C2(Cl)Cl (configuration not stated)
inactive: 786-0 > 100 µM | COLO 205 > 100 µM | HT-29 > 100 µM | KM12 > 100 µM | NCI-H23 > 100 µM | OVCAR-3 > 100 µM | OVCAR-4 > 100 µM | OVCAR-8 > 100 µM | RPMI-8226 > 100 µM | RXF 393 > 100 µM | SF-295 > 100 µM | SK-MEL-28 > 100 µM | SK-MEL-5 > 100 µM | SNB-75 28.1 µM

Cc1c(Cl)ccc2[s+]snc12
inactive: 786-0 19.1 µM | A498 68.2 µM | COLO 205 > 100 µM | HT-29 34.4 µM | KM12 43.1 µM | NCI-H226 68.4 µM | NCI-H23 52.5 µM | OVCAR-3 51.3 µM | OVCAR-4 42.3 µM | OVCAR-5 > 100 µM | OVCAR-8 21.6 µM | RXF 393 19.8 µM | SF-295 > 100 µM | SK-MEL-28 29.4 µM | SK-MEL-5 21 µM | SNB-75 67.6 µM | UACC-257 30.3 µM | UO-31 23.9 µM

O=C(Nc1ccccc1)n1cc(-c2ccccn2)c(N2CCOCC2)n1
inactive: 786-0 4.49 µM | A498 4.11 µM | COLO 205 5.14 µM | HT-29 2.69 µM | KM12 1.79 µM | NCI-H226 23.8 µM | OVCAR-3 2.12 µM | OVCAR-4 > 100 µM | OVCAR-8 46 µM | RPMI-8226 4.27 µM | SF-295 1.9 µM | SK-MEL-5 6.04 µM | SNB-75 3.78 µM | UACC-257 17.7 µM | UO-31 11.8 µM

COc1ccccc1/N=N/c1c(-c2ccccc2)nn(C(=O)CC(=O)Nc2cccc(C)c2)c1-c1ccccc1
inactive: 786-0 43.1 µM | A498 40 µM | COLO 205 71.3 µM | HT-29 16.4 µM | KM12 26.1 µM | NCI-H226 36.3 µM | NCI-H23 24.1 µM | OVCAR-3 16 µM | OVCAR-4 28.6 µM | OVCAR-5 36.3 µM | OVCAR-8 31.2 µM | RXF 393 53.3 µM | SF-295 28.2 µM | SK-MEL-28 > 100 µM | SK-MEL-5 18.7 µM | SNB-75 11.8 µM | UACC-257 27.3 µM | UO-31 19.7 µM

C[N+](C)(C)CC(=O)N/N=C(\CCC(=O)NCCc1ccccc1)CC(=O)c1ccccc1
inactive: 786-0 > 100 µM | A498 > 100 µM | COLO 205 > 100 µM | HT-29 > 100 µM | KM12 > 100 µM | NCI-H226 > 100 µM | NCI-H23 > 100 µM | OVCAR-3 > 100 µM | OVCAR-4 > 100 µM | OVCAR-5 > 100 µM | OVCAR-8 > 100 µM | RPMI-8226 > 100 µM | SF-295 > 100 µM | SK-MEL-5 > 100 µM | UACC-257 > 100 µM | UO-31 > 100 µM

COc1ccc([C@@H]2OC(=O)C3C2C(=O)O[C@H]3c2ccc(OC)cc2)cc1 (some centres not stated)
inactive: 786-0 > 100 µM | A498 > 100 µM | COLO 205 > 100 µM | HT-29 > 100 µM | KM12 > 100 µM | NCI-H23 > 100 µM | OVCAR-3 > 100 µM | OVCAR-4 > 100 µM | OVCAR-8 > 100 µM | RPMI-8226 > 100 µM | RXF 393 76.4 µM | SF-295 > 100 µM | SK-MEL-28 > 100 µM | SNB-75 > 100 µM | UACC-257 > 100 µM | UO-31 > 100 µM

CC1OC(n2cc(C(F)(F)F)c(=O)[nH]c2=O)C=CC1=O (configuration not stated)
inactive: 786-0 18.4 µM | COLO 205 19.3 µM | HT-29 24.5 µM | KM12 18.5 µM | NCI-H226 28.4 µM | NCI-H23 18.2 µM | OVCAR-3 17.7 µM | OVCAR-4 13.4 µM | OVCAR-5 19.4 µM | OVCAR-8 27.2 µM | RPMI-8226 13.5 µM | SF-295 27.6 µM | SK-MEL-28 21 µM | SNB-75 16 µM | UACC-257 19.1 µM | UO-31 18.2 µM

Cc1ccc(N/C(Sc2ccccc2)=C(/C(Cl)=C(Cl)Cl)[N+](=O)[O-])c(C)c1
inactive: 786-0 16.5 µM | A498 21.8 µM | COLO 205 20.9 µM | HT-29 18.3 µM | KM12 17.3 µM | NCI-H226 24.6 µM | NCI-H23 22.9 µM | OVCAR-4 23.7 µM | OVCAR-5 17.8 µM | OVCAR-8 34.5 µM | RPMI-8226 20.3 µM | SF-295 25.1 µM | SK-MEL-28 18.5 µM | SK-MEL-5 25.1 µM | UACC-257 18.2 µM

CCOC(=O)/C(C#N)=C1/C(O)=C(C(=O)OC)C(C(=O)OC)=C1C(=O)OC.c1ccncc1
inactive: 786-0 > 100 µM | COLO 205 > 100 µM | HT-29 > 100 µM | KM12 > 100 µM | NCI-H23 > 100 µM | OVCAR-3 > 100 µM | OVCAR-4 > 100 µM | OVCAR-5 > 100 µM | OVCAR-8 > 100 µM | RPMI-8226 > 100 µM | RXF 393 > 100 µM | SF-295 > 100 µM | SK-MEL-28 > 100 µM | SK-MEL-5 > 100 µM | SNB-75 > 100 µM | UACC-257 > 100 µM | UO-31 > 100 µM

O=C1C2=C(CCCCC2)C2CCCCC12O (configuration not stated)
inactive: 786-0 > 100 µM | COLO 205 > 100 µM | HT-29 > 100 µM | KM12 > 100 µM | NCI-H226 > 100 µM | NCI-H23 > 100 µM | OVCAR-3 > 100 µM | OVCAR-8 > 100 µM | RPMI-8226 > 100 µM | RXF 393 > 100 µM | SF-295 > 100 µM | SK-MEL-28 > 100 µM | SNB-75 > 100 µM | UACC-257 > 100 µM | UO-31 > 100 µM
